Test results as given in patent publication US9023806B2, “Peptide capable of altering tubulin polymerization and use thereof for inhibiting cell proliferation” (Universite d'Angers, priority 2004, dated 2015).
Entries after “also recorded” stand apart in the source; their conditions may differ.

Experiments:
[1] = system: tubulin; assay: Peptide-on-membrane chip blot overlay with purified tubulin; format: binding, mice; conditions: purified tubulin overnight at 4° C., anti-βIII tubulin antibody
Text: Peptide chips corresponding to the NFL, NFM and NFH neurofilament subunits were obtained according to Frank et al., 1992, with an ASP 222 automat spot robot. Each neurofilament sequence was divided into sequences of 15 amino acids.
These peptides overlap 12 amino acids of the next peptide. The overlapping peptides were synthesized on spots, like a chip, on a specially produced cellulose membrane (AIMS scientific product, GmbH, Braunschweig, Germany). The peptides are bound to the membrane with a polyethylene glycol bridge owing to their carboxy-terminal amino acid. The synthetic procedure followed is that of Frank et al., 1996.
Alternatively, the strips that were detected were cut out and analyzed by mass spectrometry. The peptide-on-membrane chip was incubated overnight at 4° C. with purified tubulin. After extensive washing with TBS (1×) the membranes were incubated with anti-βIII-tubulin antibodies in order to detect the amino acid sequences that interact with tubulin.
In order to identify the sequences responsible for the binding of tubulin to the neurofilaments, we use peptide-on-membrane chips, corresponding to the three neurofilament subunits (see experimental procedures). This method makes it possible to identify the binding domain involved in protein-protein interaction. […] The NFL subunit contains two tubulin binding sequences of 24 amino acids which we call NFL-TBS1 and NFL-TBS2 whereas NFM-TBS and NFH-TBS both contain 39 amino acids (FIG. 2A). […]

[2] = system: tubulin; assay: Spectrophotometric (turbidimetry, OD 350 nm) analysis of microtubule polymerization; format: biochemical, mice; conditions: for influence on polymerization of microtubules (inhibition or activation): in vitro turbidimetry
Description: The alteration of tubulin polymerization is measured by measuring the turbidity (optical density at 350 nm) of a tubulin suspension. A decrease in turbidity of at least 1% is a sign of inhibition of tubulin polymerization.
The polymerization of tubulin from the supernatant S3 of a microtubule preparation was investigated by turbidimetry. Briefly, the supernatant S3 (3 mg/ml) was incubated at 37° C. in the presence of 1 mM of GTP in a Helios α thermospectronic spectrophotometer to monitor the variations in optical density at 350 nm.
To test this hypothesis, we conducted turbidimetry experiments with the various peptide sequences identified by blot overlay on the peptide chip. For this purpose, the supernatant S3 (containing free tubulin), obtained from a microtubule preparation, was polymerized at 37° C. in the presence of 1 mM GTP and several concentrations (3, 10, 30, and 100 μM) of tubulin binding peptide, which were added before polymerization (t=0).
As previously for the NF-TBS peptides, studies of the influence of the peptides of vimentin, cytokeratin and GFAP identified by peptide chip on the assembly of microtubules in vitro were carried out by the same technique as described previously in the Material and Method section (Spectrophotometric analysis of microtubule polymerization) in Example 1.

[3] = system: T98G cells; assay: FACS (flow cytometry) cell cycle analysis; format: cell-based
Text: (B-B′): Analysis by flow cytometry of control cells and cells treated with the peptides SEQ ID No. 6.
The microtubules constitute an important component of the achromatic spindle. To determine whether the presence of peptides SEQ ID No. 6 could affect cell division, the inventors usually carry out a FACS (Fluorescence Activated Cell Sorter) analysis to compare the distribution of the cycles of control cells and T98G cells treated with 10 μm of peptide SEQ ID No. 6.
In order to determine how a peptide that is an activator of microtubule polymerization affects cell division, a FACS analysis was carried out to compare the distribution of the cycles of untreated T98G cells (without peptide) or treated with 100 μm of peptide GFAP-TBS1 (SEQ ID No. 26), by the same protocol as that described in Example 2.

[4] = system: T98G cells; assay: Peptide uptake and in-situ microtubule network by immunofluorescence; format: cell-based; conditions: 6 hours
Description: (A-A′-A″): The T98G cells are treated with the peptides SEQ ID No. 6 (10 μM) for 6 hours and the microtubules are then detected using an anti-tubulin antibody (red) and the biotinylated peptides SEQ ID No. 6 are detected using Alexa-labeled avidin (green).
To determine whether they could also modify the in-situ assembly of microtubules, T98G cells were incubated with 10 μm of biotinylated peptides SEQ ID No. 6. After incubation for 6 hours, more than 75% of the cells contain the peptide (FIG. 8 A, A′, A″) and are characterized by an unusual spherical shape.

[5] = system: T98G cells; assay: MTS cell proliferation test; format: cell-based
Text: The effect of exposure of peptide SEQ ID No. 6 on cell proliferation was confirmed using MTS analysis (described in Cory A. H. et al., 1991, Cancer Commun. 3, 207-212, incorporated here by reference) in which the inventors observed fewer cells in the cultures treated with peptide SEQ ID No. 6 (FIG. 8C).

Sequence | tubulin binding site detected on peptide chip [1] | influence on polymerization of microtubules (inhibition or activation) [2] | further results
MSQAYSSSQRVSSYRRTFGGAPGFSLG (listed as Mus musculus) [Des-TBS1] | tubulin binding sites | – | –
KSVSEGHLKRNIVVKTVEMRD (listed as Mus musculus) [GFAP-TBS3] | tubulin binding sites | inhibitors of microtubule polymerization | –
SSPVFPRAGFGTKGSSSSMTSRVYQVSRTSGGAGGLGSLRSSRLGTTRAPSYGA (listed as Mus musculus) [Des-TBS2] | tubulin binding sites | – | –
GSEVHTKKTVMIKTIETRDGE (listed as Mus musculus) [Des-TBS3] | tubulin binding sites | – | –
VRGLGPSRQLGTMPRFSLSRMTPPLPARVDFSLAGA (listed as Mus musculus) [GFAP-TBS2] | tubulin binding sites | – | –
MERRRITSARRSYASETVVRGLGP (listed as Mus musculus) [GFAP-TBS1] | tubulin binding sites | activate microtubule polymerization | cell cycle effect compared with control cells ([3]; 100 μM, 36 hours): strong stopping in phase G1; also recorded: inhibits cell division
MSIRVTQKSYKMSTSGPRAFSSRSFTSGPGARISSSSFSRVGSSSSSFRGSMGT (listed as Mus musculus) [Ker-TBS1] | tubulin binding sites | activate microtubule polymerization | –

The next lines start with results.

tubulin binding site detected on peptide chip [1] | Sequence | influence on polymerization of microtubules (inhibition or activation) [2] | further results
tubulin binding sites | MSTRSVSSSSYRRMFGGS (listed as Mus musculus) [Vim-TBS1] | – | –
tubulin binding domains | YSSYSAPVSSSLSVRRSYSSSSGS (listed as Mus musculus) [NFL-TBS2] | powerful effect; also recorded: inhibitors of microtubule polymerization | inhibition of tubulin polymerization ([2]; 100 μM peptide, supernatant S3, 37° C., 1 mM GTP): 100%; cell cycle effect compared with control cells ([3]; 10 μM, 48 hours): strong stopping in phase G1; cells in phase G1 of mitosis ([3]; 10 μm peptide, culture for 48 hours (untreated 39%)): 61%; microtubule network in cells containing the peptide ([4]; 10 μM, anti-tubulin antibody, listed as SEQ ID No. 6): lack a typical microtubule network; also recorded: disunited network of microtubules; cells containing the peptide ([4]; biotinylated peptide, 10 μm): more than 75%; proliferation of T98G cells relative to untreated control ([5]; 10 μM for 48 hours, listed as SEQ ID No. 6): greatly reduced; also recorded: fewer cells; degradation or elimination of peptide during culture ([5]; inferred from comparison with medium replaced at 24 hours): little (if any) degradation or elimination; inhibition of the increase in number of cells ([5]; medium containing peptide replaced at 24 hours, data not shown): clearly observed
single binding sequence | AYRRVPTETRSSFSRVSGSPSSGFRSQSWSRGSPSTVSS (listed as Mus musculus) [NFM-TBS] | – | –
tubulin binding sites | SAGGSNTFSRTTKAVVVKKIETRDGKLVSE (listed as Mus musculus) [Ker-TBS3] | – | –
tubulin binding sites | QIKSLNNKFASFIDKVRFLEQ (listed as Mus musculus) [Ker-TBS2] | – | –
single binding sequence | RSAAGSSSGFHSWARTSVSSVSASPSRFRGAASSTDSLD (listed as Mus musculus) [NFH-TBS] | – | –
tubulin binding sites | GGAYVTRSSAVRLRSSVPGVRLLQ (listed as Mus musculus) [Vim-TBS2] | activate microtubule polymerization | –
tubulin binding domains | FGYDPYFSTSYKRRYVETPRVHIS (listed as Mus musculus) [NFL-TBS1] | – | –
tubulin binding sites | SLPLVDTHSKRTLLIKTVETR (listed as Mus musculus) [Vim-TBS3] | inhibitors of microtubule polymerization | –
